What follows are compounds tested on 454973-116-R2-J3-PDC spheroids, viability, % test/control (assay: Anticancer human tumor 454973-116-R2-J3-PDC patient-derived pancreatic carcinoma cell line growth inhibition [GQUAD]). Conditions: curve of first compound; second compound 0.0316 µM; spheroids with HUVEC and MSC.
Method in brief: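 Viability of tumor cells grown as complex spheroids with endothelial and stromal cells, exposed to drug combinations. Top concentration at or near clinical Cmax (else 10 microM), diluted in half-log increments.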
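Also: spheroids exposed to compounds for seven days.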
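For viability, T/C in this document: 100% = DMSO vehicle control viability.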

SMILES	IC50
COc1ncnc(C2CC2)c1-c1ncc2cnn(Cc3ccc(-c4nc(C(F)(F)F)cn4C(C)C)cc3)c2n1 + Cc1[nH]c2ccc(F)cc2c1-c1nc2c3cccnc3c3ncccc3c2[nH]1	> 10000 nM
CC(C)n1c(=O)n(C)c2cnc3cc(F)c(-c4ccc(OCCCN5CCCCC5)nc4)cc3c21 + Cc1cnc(CNC(=O)c2c(=O)c3ccc(N4CCCN(C)CC4)nc3n3c2sc2ccccc23)cn1	> 10000 nM
CC1COCCN1c1cc(-c2ccnn2C)c2ccnc(-c3ccn[nH]3)c2n1 (configuration not stated) + Cc1cnc(CNC(=O)c2c(=O)c3ccc(N4CCCN(C)CC4)nc3n3c2sc2ccccc23)cn1	42.3 nM
CC1COCCN1c1cc(C2(S(C)(=N)=O)CC2)nc(-c2ccnc3[nH]ccc23)n1 (configuration not stated) + Cc1cnc(CNC(=O)c2c(=O)c3ccc(N4CCCN(C)CC4)nc3n3c2sc2ccccc23)cn1	2560 nM
Cn1ncnc1[C@H]1c2n[nH]c(=O)c3cc(F)cc(c23)N[C@@H]1c1ccc(F)cc1 + Cc1cnc(CNC(=O)c2c(=O)c3ccc(N4CCCN(C)CC4)nc3n3c2sc2ccccc23)cn1	> 316 nM

Same assay, conditions: curve of first compound; second compound 0.1 µM; spheroids with HUVEC and MSC

SMILES	IC50
COc1ncnc(C2CC2)c1-c1ncc2cnn(Cc3ccc(-c4nc(C(F)(F)F)cn4C(C)C)cc3)c2n1 + Cc1[nH]c2ccc(F)cc2c1-c1nc2c3cccnc3c3ncccc3c2[nH]1	> 10000 nM
CC(C)n1c(=O)n(C)c2cnc3cc(F)c(-c4ccc(OCCCN5CCCCC5)nc4)cc3c21 + Cc1cnc(CNC(=O)c2c(=O)c3ccc(N4CCCN(C)CC4)nc3n3c2sc2ccccc23)cn1	< 31.6 nM
CC1COCCN1c1cc(-c2ccnn2C)c2ccnc(-c3ccn[nH]3)c2n1 (configuration not stated) + Cc1cnc(CNC(=O)c2c(=O)c3ccc(N4CCCN(C)CC4)nc3n3c2sc2ccccc23)cn1	< 31.6 nM
CC1COCCN1c1cc(C2(S(C)(=N)=O)CC2)nc(-c2ccnc3[nH]ccc23)n1 (configuration not stated) + Cc1cnc(CNC(=O)c2c(=O)c3ccc(N4CCCN(C)CC4)nc3n3c2sc2ccccc23)cn1	1420 nM
Cn1ncnc1[C@H]1c2n[nH]c(=O)c3cc(F)cc(c23)N[C@@H]1c1ccc(F)cc1 + Cc1cnc(CNC(=O)c2c(=O)c3ccc(N4CCCN(C)CC4)nc3n3c2sc2ccccc23)cn1	76.8 nM

Same assay, conditions: curve of first compound; second compound 0.316 µM; spheroids with HUVEC and MSC

SMILES	IC50
COc1ncnc(C2CC2)c1-c1ncc2cnn(Cc3ccc(-c4nc(C(F)(F)F)cn4C(C)C)cc3)c2n1 + Cc1[nH]c2ccc(F)cc2c1-c1nc2c3cccnc3c3ncccc3c2[nH]1	> 10000 nM
CC(C)n1c(=O)n(C)c2cnc3cc(F)c(-c4ccc(OCCCN5CCCCC5)nc4)cc3c21 + Cc1cnc(CNC(=O)c2c(=O)c3ccc(N4CCCN(C)CC4)nc3n3c2sc2ccccc23)cn1	< 31.6 nM
CC1COCCN1c1cc(-c2ccnn2C)c2ccnc(-c3ccn[nH]3)c2n1 (configuration not stated) + Cc1cnc(CNC(=O)c2c(=O)c3ccc(N4CCCN(C)CC4)nc3n3c2sc2ccccc23)cn1	< 31.6 nM
CC1COCCN1c1cc(C2(S(C)(=N)=O)CC2)nc(-c2ccnc3[nH]ccc23)n1 (configuration not stated) + Cc1cnc(CNC(=O)c2c(=O)c3ccc(N4CCCN(C)CC4)nc3n3c2sc2ccccc23)cn1	957 nM
Cn1ncnc1[C@H]1c2n[nH]c(=O)c3cc(F)cc(c23)N[C@@H]1c1ccc(F)cc1 + Cc1cnc(CNC(=O)c2c(=O)c3ccc(N4CCCN(C)CC4)nc3n3c2sc2ccccc23)cn1	51.8 nM

Same assay, conditions: curve of first compound; second compound 1 µM; spheroids with HUVEC and MSC

SMILES	IC50
COc1ncnc(C2CC2)c1-c1ncc2cnn(Cc3ccc(-c4nc(C(F)(F)F)cn4C(C)C)cc3)c2n1 + Cc1[nH]c2ccc(F)cc2c1-c1nc2c3cccnc3c3ncccc3c2[nH]1	> 10000 nM
CC(C)n1c(=O)n(C)c2cnc3cc(F)c(-c4ccc(OCCCN5CCCCC5)nc4)cc3c21 + Cc1cnc(CNC(=O)c2c(=O)c3ccc(N4CCCN(C)CC4)nc3n3c2sc2ccccc23)cn1	39.7 nM
CC1COCCN1c1cc(-c2ccnn2C)c2ccnc(-c3ccn[nH]3)c2n1 (configuration not stated) + Cc1cnc(CNC(=O)c2c(=O)c3ccc(N4CCCN(C)CC4)nc3n3c2sc2ccccc23)cn1	< 31.6 nM
CC1COCCN1c1cc(C2(S(C)(=N)=O)CC2)nc(-c2ccnc3[nH]ccc23)n1 (configuration not stated) + Cc1cnc(CNC(=O)c2c(=O)c3ccc(N4CCCN(C)CC4)nc3n3c2sc2ccccc23)cn1	1470 nM
Cn1ncnc1[C@H]1c2n[nH]c(=O)c3cc(F)cc(c23)N[C@@H]1c1ccc(F)cc1 + Cc1cnc(CNC(=O)c2c(=O)c3ccc(N4CCCN(C)CC4)nc3n3c2sc2ccccc23)cn1	> 316 nM

Same assay, conditions: curve of first compound; second compound 3.16 µM; spheroids with HUVEC and MSC

SMILES	IC50
COc1ncnc(C2CC2)c1-c1ncc2cnn(Cc3ccc(-c4nc(C(F)(F)F)cn4C(C)C)cc3)c2n1 + Cc1[nH]c2ccc(F)cc2c1-c1nc2c3cccnc3c3ncccc3c2[nH]1	> 10000 nM
CC(C)n1c(=O)n(C)c2cnc3cc(F)c(-c4ccc(OCCCN5CCCCC5)nc4)cc3c21 + Cc1cnc(CNC(=O)c2c(=O)c3ccc(N4CCCN(C)CC4)nc3n3c2sc2ccccc23)cn1	> 10000 nM
CC1COCCN1c1cc(-c2ccnn2C)c2ccnc(-c3ccn[nH]3)c2n1 (configuration not stated) + Cc1cnc(CNC(=O)c2c(=O)c3ccc(N4CCCN(C)CC4)nc3n3c2sc2ccccc23)cn1	< 31.6 nM
CC1COCCN1c1cc(C2(S(C)(=N)=O)CC2)nc(-c2ccnc3[nH]ccc23)n1 (configuration not stated) + Cc1cnc(CNC(=O)c2c(=O)c3ccc(N4CCCN(C)CC4)nc3n3c2sc2ccccc23)cn1	1060 nM
Cn1ncnc1[C@H]1c2n[nH]c(=O)c3cc(F)cc(c23)N[C@@H]1c1ccc(F)cc1 + Cc1cnc(CNC(=O)c2c(=O)c3ccc(N4CCCN(C)CC4)nc3n3c2sc2ccccc23)cn1	> 316 nM

Same assay, conditions: curve of first compound; second compound 10 µM; spheroids with HUVEC and MSC

SMILES	IC50
COc1ncnc(C2CC2)c1-c1ncc2cnn(Cc3ccc(-c4nc(C(F)(F)F)cn4C(C)C)cc3)c2n1 + Cc1[nH]c2ccc(F)cc2c1-c1nc2c3cccnc3c3ncccc3c2[nH]1	> 10000 nM
CC(C)n1c(=O)n(C)c2cnc3cc(F)c(-c4ccc(OCCCN5CCCCC5)nc4)cc3c21 + Cc1cnc(CNC(=O)c2c(=O)c3ccc(N4CCCN(C)CC4)nc3n3c2sc2ccccc23)cn1	< 31.6 nM
CC1COCCN1c1cc(-c2ccnn2C)c2ccnc(-c3ccn[nH]3)c2n1 (configuration not stated) + Cc1cnc(CNC(=O)c2c(=O)c3ccc(N4CCCN(C)CC4)nc3n3c2sc2ccccc23)cn1	< 31.6 nM
CC1COCCN1c1cc(C2(S(C)(=N)=O)CC2)nc(-c2ccnc3[nH]ccc23)n1 (configuration not stated) + Cc1cnc(CNC(=O)c2c(=O)c3ccc(N4CCCN(C)CC4)nc3n3c2sc2ccccc23)cn1	< 31.6 nM
Cn1ncnc1[C@H]1c2n[nH]c(=O)c3cc(F)cc(c23)N[C@@H]1c1ccc(F)cc1 + Cc1cnc(CNC(=O)c2c(=O)c3ccc(N4CCCN(C)CC4)nc3n3c2sc2ccccc23)cn1	< 0.999 nM

Same assay, conditions: second compound 0.0316 µM; first compound 0.000999 µM; stronger effect = lower value; spheroids with HUVEC and MSC

SMILES	viability, T/C
Cn1ncnc1[C@H]1c2n[nH]c(=O)c3cc(F)cc(c23)N[C@@H]1c1ccc(F)cc1 + Cc1cnc(CNC(=O)c2c(=O)c3ccc(N4CCCN(C)CC4)nc3n3c2sc2ccccc23)cn1	108%

Same assay, conditions: second compound 0.0316 µM; first compound 0.00316 µM; stronger effect = lower value; spheroids with HUVEC and MSC

SMILES	viability, T/C
Cn1ncnc1[C@H]1c2n[nH]c(=O)c3cc(F)cc(c23)N[C@@H]1c1ccc(F)cc1 + Cc1cnc(CNC(=O)c2c(=O)c3ccc(N4CCCN(C)CC4)nc3n3c2sc2ccccc23)cn1	90.2%

Same assay, conditions: second compound 0.0316 µM; first compound 0.00999 µM; stronger effect = lower value; spheroids with HUVEC and MSC

SMILES	viability, T/C
Cn1ncnc1[C@H]1c2n[nH]c(=O)c3cc(F)cc(c23)N[C@@H]1c1ccc(F)cc1 + Cc1cnc(CNC(=O)c2c(=O)c3ccc(N4CCCN(C)CC4)nc3n3c2sc2ccccc23)cn1	91.4%

Same assay, conditions: second compound 0.0316 µM; first compound 0.0316 µM; stronger effect = lower value; spheroids with HUVEC and MSC

SMILES	viability, T/C
COc1ncnc(C2CC2)c1-c1ncc2cnn(Cc3ccc(-c4nc(C(F)(F)F)cn4C(C)C)cc3)c2n1 + Cc1[nH]c2ccc(F)cc2c1-c1nc2c3cccnc3c3ncccc3c2[nH]1	112%
CC(C)n1c(=O)n(C)c2cnc3cc(F)c(-c4ccc(OCCCN5CCCCC5)nc4)cc3c21 + Cc1cnc(CNC(=O)c2c(=O)c3ccc(N4CCCN(C)CC4)nc3n3c2sc2ccccc23)cn1	76.6%
CC1COCCN1c1cc(-c2ccnn2C)c2ccnc(-c3ccn[nH]3)c2n1 (configuration not stated) + Cc1cnc(CNC(=O)c2c(=O)c3ccc(N4CCCN(C)CC4)nc3n3c2sc2ccccc23)cn1	58.3%
CC1COCCN1c1cc(C2(S(C)(=N)=O)CC2)nc(-c2ccnc3[nH]ccc23)n1 (configuration not stated) + Cc1cnc(CNC(=O)c2c(=O)c3ccc(N4CCCN(C)CC4)nc3n3c2sc2ccccc23)cn1	104%
Cn1ncnc1[C@H]1c2n[nH]c(=O)c3cc(F)cc(c23)N[C@@H]1c1ccc(F)cc1 + Cc1cnc(CNC(=O)c2c(=O)c3ccc(N4CCCN(C)CC4)nc3n3c2sc2ccccc23)cn1	80.8%

Same assay, conditions: second compound 0.0316 µM; first compound 0.0999 µM; stronger effect = lower value; spheroids with HUVEC and MSC

SMILES	viability, T/C
Cn1ncnc1[C@H]1c2n[nH]c(=O)c3cc(F)cc(c23)N[C@@H]1c1ccc(F)cc1 + Cc1cnc(CNC(=O)c2c(=O)c3ccc(N4CCCN(C)CC4)nc3n3c2sc2ccccc23)cn1	70%

Same assay, conditions: second compound 0.0316 µM; first compound 0.1 µM; stronger effect = lower value; spheroids with HUVEC and MSC

SMILES	viability, T/C
COc1ncnc(C2CC2)c1-c1ncc2cnn(Cc3ccc(-c4nc(C(F)(F)F)cn4C(C)C)cc3)c2n1 + Cc1[nH]c2ccc(F)cc2c1-c1nc2c3cccnc3c3ncccc3c2[nH]1	100%
CC(C)n1c(=O)n(C)c2cnc3cc(F)c(-c4ccc(OCCCN5CCCCC5)nc4)cc3c21 + Cc1cnc(CNC(=O)c2c(=O)c3ccc(N4CCCN(C)CC4)nc3n3c2sc2ccccc23)cn1	53.5%
CC1COCCN1c1cc(-c2ccnn2C)c2ccnc(-c3ccn[nH]3)c2n1 (configuration not stated) + Cc1cnc(CNC(=O)c2c(=O)c3ccc(N4CCCN(C)CC4)nc3n3c2sc2ccccc23)cn1	26.2%
CC1COCCN1c1cc(C2(S(C)(=N)=O)CC2)nc(-c2ccnc3[nH]ccc23)n1 (configuration not stated) + Cc1cnc(CNC(=O)c2c(=O)c3ccc(N4CCCN(C)CC4)nc3n3c2sc2ccccc23)cn1	95.5%

Same assay, conditions: second compound 0.0316 µM; first compound 0.316 µM; stronger effect = lower value; spheroids with HUVEC and MSC

SMILES	viability, T/C
COc1ncnc(C2CC2)c1-c1ncc2cnn(Cc3ccc(-c4nc(C(F)(F)F)cn4C(C)C)cc3)c2n1 + Cc1[nH]c2ccc(F)cc2c1-c1nc2c3cccnc3c3ncccc3c2[nH]1	110%
CC(C)n1c(=O)n(C)c2cnc3cc(F)c(-c4ccc(OCCCN5CCCCC5)nc4)cc3c21 + Cc1cnc(CNC(=O)c2c(=O)c3ccc(N4CCCN(C)CC4)nc3n3c2sc2ccccc23)cn1	59.6%
CC1COCCN1c1cc(-c2ccnn2C)c2ccnc(-c3ccn[nH]3)c2n1 (configuration not stated) + Cc1cnc(CNC(=O)c2c(=O)c3ccc(N4CCCN(C)CC4)nc3n3c2sc2ccccc23)cn1	17.6%
CC1COCCN1c1cc(C2(S(C)(=N)=O)CC2)nc(-c2ccnc3[nH]ccc23)n1 (configuration not stated) + Cc1cnc(CNC(=O)c2c(=O)c3ccc(N4CCCN(C)CC4)nc3n3c2sc2ccccc23)cn1	96.6%
Cn1ncnc1[C@H]1c2n[nH]c(=O)c3cc(F)cc(c23)N[C@@H]1c1ccc(F)cc1 + Cc1cnc(CNC(=O)c2c(=O)c3ccc(N4CCCN(C)CC4)nc3n3c2sc2ccccc23)cn1	59%

Same assay, conditions: second compound 0.0316 µM; first compound 1 µM; stronger effect = lower value; spheroids with HUVEC and MSC

SMILES	viability, T/C
COc1ncnc(C2CC2)c1-c1ncc2cnn(Cc3ccc(-c4nc(C(F)(F)F)cn4C(C)C)cc3)c2n1 + Cc1[nH]c2ccc(F)cc2c1-c1nc2c3cccnc3c3ncccc3c2[nH]1	110%
CC(C)n1c(=O)n(C)c2cnc3cc(F)c(-c4ccc(OCCCN5CCCCC5)nc4)cc3c21 + Cc1cnc(CNC(=O)c2c(=O)c3ccc(N4CCCN(C)CC4)nc3n3c2sc2ccccc23)cn1	52.9%
CC1COCCN1c1cc(-c2ccnn2C)c2ccnc(-c3ccn[nH]3)c2n1 (configuration not stated) + Cc1cnc(CNC(=O)c2c(=O)c3ccc(N4CCCN(C)CC4)nc3n3c2sc2ccccc23)cn1	18.5%
CC1COCCN1c1cc(C2(S(C)(=N)=O)CC2)nc(-c2ccnc3[nH]ccc23)n1 (configuration not stated) + Cc1cnc(CNC(=O)c2c(=O)c3ccc(N4CCCN(C)CC4)nc3n3c2sc2ccccc23)cn1	79.2%

— PubChem BioAssay AID2060508 (Molecular Pharmacology Branch, DTP, NCI, 2025)
